Tests used:
Format in all cases: cell-based
[1] = tested on: GENEA019 human embryonic stem cells; test: Myogenic induction with Wnt pathway modulators, Hoechst and Pax3 staining; details: modulator 1 μM in medium with Y-27632 10 μM and Alk5 inhibitor 2 μM; 9 days
Protocol: GENEA019 human embryonic stem cells were plated in Skeletal Muscle Cell Basal Medium (Lonza) with Skeletal Muscle Cell Growth Supplement (Lonza) and horse serum (5%) supplemented with Y-27632 (10 μM) and Alk5 inhibitor (2 μM), and a series of Wnt pathway modulators, including CHIR99021 (1 μM), AZD1080 (1 μM), IWP-L6 (1 μM), D4476 (1 μM), and AT13148 (1 μM). After 9 days in culture, cells were fixed and stained for DNA (Hoechst) and Pax3.

[2] = tested on: GENEA002, GENEA015, and GENEA019 human embryonic stem cell lines; test: Myogenic induction in MCDB media with optional THI, FGF2 or LRRK2-IN-1, Hoechst, Pax3 and Pax7 staining; details: 4 days; for cell proliferation (FIGS. 15A-F) / yield of Pax3/7-positive cells (FIGS. 15A-F): 5 μm THI or 5 ng/L FGF2 added to MCDB media, collagen I
Protocol: GENEA002, GENEA015, and GENEA019 human embryonic stem cell lines were plated on collagen I-coated culture dishes in the following culture media:
4) MCDB FA ITS: same as MCDB FA with insulin/transferrin/selenium (ITS, 100×)
A control compound, 5 μm THI (2-acetyl-4(5)-(1,2,3,4-tetrahydroxybutyl)imidazole), or […] FGF2 was optionally added to the media. The LRRK2 inhibitor, LRRK2-IN-1 (1 μM), was optionally added to MCDB MinFA medium. Cells were fixed after 4 days and stained for DNA (Hoechst), Pax3 and Pax7.

[3] = tested on: GENEA019 human embryonic cells; test: Myogenic induction on extracellular matrix molecules (collagen I, laminins), Hoechst and Pax7 staining; details: plate coating; medium with Y-27632 10 μM, CHIR99021 3 μM, Alk5 inhibitor 2 μM; 9 days
Source text: After 9 days, cells were fixed and stained for DNA (Hoechst) and Pax7.

[4] = tested on: GENEA015 and GENEA019 human embryonic stem cells; test: Kinase inhibitor dose range in myogenic induction, Hoechst and Pax7 staining; details: dose range from 10 nM to 1 μM; 4 days; medium with Y-27632, CHIR99021, Alk5 inhibitor
Protocol: In addition to LRRK2-IN-1, various other kinase inhibitors were tested in a dose range from 10 nM to 1 μM. Cells were fixed after 4 days and stained for DNA (Hoechst) and Pax7.

[5] = tested on: GENEA019 and GENEA067 human embryonic stem cell lines; test: Myogenic induction with or without LRRK2-IN-1, phase contrast microscopy; details: LRRK2-IN-1 1 μM, suppresses flat contaminating cells with large cytoplasms
Source text: (§1) After 9 days, cells were fixed and stained for DNA (Hoechst) and Pax3.
The same experiment was repeated using GENEA019 and GENEA067 human embryonic stem cell lines. Cell populations were observed by phase contrast microscopy.

[6] = tested on: GENEA019 human embryonic stem cells; test: Myogenic induction with or without LRRK2-IN-1, Hoechst and Pax3 staining; details: LRRK2-IN-1 1 μM added to medium with Y-27632, CHIR99021, Alk5 inhibitor; 9 days
Source text: as §1

[7] = tested on: GENEA019 and GENEA067 human embryonic stem cells; test: Differentiation with continuous ROCK inhibition or with ROCK inhibitor removed after attachment; details: Y-27632 (10 μM) removed one day after plating, compared with continuous presence
Protocol: Cells were either differentiated further in the same medium with media changes every other day, or one day after plating and after cells had attached, cells were changed to and maintained in the same culture medium but without the ROCK inhibitor, Y-27632 (10 μM).

Cc1c[nH]c(-c2cnc(NCCNc3ccc(C#N)cn3)nc2-c2ccc(Cl)cc2Cl)n1 [CHIR99021]
myogenic induction / Pax3-positive cells (FIGS. 17A and 17B) [1]: promoted myogenic induction and resulted in Pax3-positive cells

FGF2: fibroblast growth factor family member
cell proliferation (FIGS. 15A-F) [2]: neither THI nor FGF2 enhanced
yield of Pax3/7-positive cells (FIGS. 15A-F) [2]: neither THI nor FGF2 enhanced

CC(=O)c1ncc(C(O)C(O)C(O)CO)[nH]1 (stereo not shown) [THI, 2-acetyl-4(5)-(1,2,3,4-tetrahydroxybutyl)imidazole]
cell proliferation (FIGS. 15A-F) [2]: neither THI nor FGF2 enhanced
yield of Pax3/7-positive cells (FIGS. 15A-F) [2]: neither THI nor FGF2 enhanced

N#Cc1ccc2[nH]c(O)c(-c3ccc(CN4CCOCC4)cn3)c2c1 [AZD1080]
myogenic induction / Pax3-positive cells (FIGS. 17A and 17B) [1]: promoted myogenic induction and resulted in Pax3-positive cells

laminin 521: extracellular matrix molecule coating tissue culture plates
Pax7-positive satellite-like cell sub population (FIG. 12A) [3]: favor a satellite-like cell sub population that is Pax7-positive
cell proliferation (FIG. 12B) [3]: promote cell proliferation

COc1cc(C(=O)N2CCC(N3CCN(C)CC3)CC2)ccc1Nc1ncc2c(n1)N(C)c1ccccc1C(=O)N2C [LRRK2-IN-1]
formation of Pax7-positive cells (FIGS. 16A and 16B) [4]: strongly promoted the formation of Pax7-positive cells in a dose-dependent manner
purity of cell populations (FIG. 14) [5]: purer cell populations
cell proliferation (FIG. 13A) [6]: promoted cell proliferation
expression of Pax3 (FIG. 13B) [6]: increased expression of Pax3
proportion of Pax3-positive and Pax7-positive cells (FIGS. 15A-F) ([2]; LRRK2-IN-1 1 μM added to MCDB MinFA medium): strong increase

O=C(CSc1nc2c(c(=O)n1-c1ccccc1)SCC2)Nc1ccc(-c2ccccc2)cn1 [IWP-L6]
myogenic induction / Pax3-positive cells (FIGS. 17A and 17B) [1]: blocked myogenic induction

C[C@@H](N)[C@H]1CC[C@H](C(=O)Nc2ccncc2)CC1 [Y-27632]
cell growth without continuous ROCK inhibition (FIG. 18) [7]: significantly growth retarded
cell population homogeneity during differentiation without continuous ROCK inhibition [7]: highly heterogeneous cell populations
